Consider 10 compounds from ChEMBL document CHEMBL1201862, “PubChem BioAssay data set” (2004).

Test systems include A549; DU-145; HCT-116; HT-29; MDA-MB-435; MDA-N; MOLT-4; Malme-3M; NCI-H460; NCI/ADR-RES; RPMI-8226; RXF 393; SF-268; SF-539; SK-MEL-2; SK-OV-3; SN12C; U-251; UACC-257; UO-31.
Test in all cases: NCI anticancer screen, dose series, 48 h

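In this assay, cells in 96-well plates receive the compound at five concentrations for 48 hours. Endpoints are linearly interpolated between the surrounding concentrations. Here, GI50 denotes the concentration required for 50% inhibition of growth.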 Calls of active or inactive are those of the source. No stated cut-off is given here; in the data, active = GI50 up to about 1.1 µM and inactive = higher.

Turning to `O=C1COC(c2ccccc2O)=NN1CCCN1CCCC1`, the GI50 with A549, with DU-145, in the test on HCT-116, with HT-29, in the test with MDA-MB-435 and in the test on MDA-N was > 100 µM (inactive) each time. Further, the GI50 in the test on MOLT-4, with Malme-3M, with NCI-H460, in the test with NCI/ADR-RES, in the test on RPMI-8226 and with RXF 393 was > 100 µM (inactive) each time. Besides, the GI50 in the test on SF-268, with SF-539, with SK-MEL-2, with SK-OV-3, with SN12C and in the test on U-251 was > 100 µM (inactive) throughout. For the same compound, the GI50 with UACC-257 and in the test on UO-31 was > 100 µM (inactive) throughout.
For the compound `COC1(CC[C@H](C)COC2OC(CO)C(O)C(O)C2O)O[C@H]2C[C@H]3[C@@H]4CC=C5C[C@@H](OC6OC(CO)C(O)C(OC7OC(CO)C(O)C(O)C7O)C6OC6OC(C)C(O)C(O)C6O)CC[C@]5(C)[C@H]4CC[C@]3(C)[C@H]2[C@@H]1C` (stereo not given in full), the GI50 with A549 was 2.73 µM (inactive); in the test with DU-145, 2 µM (inactive); in the test with HCT-116 it was 4.5 µM (inactive); with HT-29, 4.57 µM (inactive); in the test with MDA-MB-435, 1.87 µM (inactive); with MDA-N, 8.81 µM (inactive). Besides, the GI50 with MOLT-4 was 3.15 µM (inactive); with Malme-3M, 2.5 µM (inactive); in the test with NCI-H460, 3.62 µM (inactive); in the test on NCI/ADR-RES, 9.44 µM (inactive); in the test on RPMI-8226, 2.54 µM (inactive); in the test on RXF 393 it was 4.24 µM (inactive). For the same compound, the GI50 was 4.89 µM (inactive) in the test with SF-268; 2.17 µM (inactive) with SF-539; 8.77 µM (inactive) with SK-MEL-2; 12.1 µM (inactive) with SK-OV-3; 5.41 µM (inactive) with SN12C; 2.12 µM (inactive) in the test with U-251. Besides, the values for the GI50 in the test on UACC-257 and in the test with UO-31 were 5.73 µM (inactive) and 2.14 µM (inactive), respectively.
For `CN(C)c1ccc(C=c2c3ccccc3n3c2cc(-c2ccc(Cl)cc2)[n+]3C)cc1`, the GI50 in the test with A549 was 0.238 µM (active); in the test with DU-145 it was 0.177 µM (active); in the test on HCT-116, 0.0653 µM (active); in the test on HT-29, 0.315 µM (active); with MDA-MB-435, 0.207 µM (active); with MDA-N, 0.327 µM (active). Besides, the GI50 is 0.147 µM (active) in the test with MOLT-4; 0.333 µM (active) in the test on Malme-3M; 0.263 µM (active) in the test with NCI-H460; 6.41 µM (inactive) in the test on NCI/ADR-RES; 0.0372 µM (active) in the test on RPMI-8226; 0.822 µM (active) with RXF 393. Further, the GI50 with SF-268 is 0.473 µM (active); with SF-539, 0.228 µM (active); in the test on SK-MEL-2 it was 0.237 µM (active); in the test on SK-OV-3 it was 0.331 µM (active); with SN12C it was 0.254 µM (active); in the test on U-251, 0.0269 µM (active). In addition, the results for the GI50 with UACC-257 and in the test on UO-31 were 0.158 µM (active) and 0.904 µM (active), respectively.
`CN1CCOC1(C)c1ccccc1` (stereo not given): the GI50 in the test on A549, in the test with DU-145, in the test on HCT-116, in the test with HT-29, in the test on MDA-MB-435 and in the test with MDA-N was > 100 µM (inactive) each time. Also, the GI50 in the test with MOLT-4, in the test on Malme-3M, with NCI-H460, in the test with NCI/ADR-RES, in the test with RPMI-8226 and in the test with RXF 393 was > 100 µM (inactive) throughout. The GI50 with SF-268, in the test on SF-539, in the test on SK-MEL-2, with SK-OV-3, with SN12C and in the test with U-251 was > 100 µM (inactive) throughout. Moreover, the GI50 with UACC-257 and in the test with UO-31 was > 100 µM (inactive) in each case.
`CC(=O)N1NC(c2ccccc2)=NC(=O)C1c1cc(C)c(O)c(C)c1` (stereo not given): the GI50 is 24.4 µM (inactive) in the test on A549; 22.7 µM (inactive) in the test with DU-145; 21.2 µM (inactive) in the test with HCT-116; 72.4 µM (inactive) in the test with HT-29; 64.4 µM (inactive) with MDA-MB-435; 54.6 µM (inactive) in the test with MDA-N. Besides, the GI50 in the test on MOLT-4 was > 100 µM (inactive); with Malme-3M it was 17.7 µM (inactive); in the test with NCI-H460, 31.1 µM (inactive); with NCI/ADR-RES, 21.9 µM (inactive); in the test on RPMI-8226, 52.7 µM (inactive); in the test on RXF 393 it was 17.5 µM (inactive). Moreover, the GI50 was 16.9 µM (inactive) with SF-268; 20.4 µM (inactive) in the test on SF-539; 28.1 µM (inactive) in the test on SK-MEL-2; 18.7 µM (inactive) in the test on SK-OV-3; 27.5 µM (inactive) in the test on SN12C; 19.2 µM (inactive) in the test on U-251. Moreover, the GI50 in the test with UACC-257 was 31.2 µM (inactive); with UO-31, 21.7 µM (inactive).
For `O=[N+]([O-])c1cccc2nc3ccccc3c(NCCCCNc3c4ccccc4nc4cccc([N+](=O)[O-])c34)c12`, the GI50 was 0.0347 µM (active) with A549; 0.0232 µM (active) with DU-145; 0.0143 µM (active) with HCT-116; < 0.01 µM (active) in the test on HT-29; 0.0489 µM (active) in the test with MDA-MB-435; 0.0536 µM (active) in the test with MDA-N. The GI50 in the test with MOLT-4 was < 0.0104 µM (active); with Malme-3M it was 0.0766 µM (active); in the test on NCI-H460, 0.0143 µM (active); in the test with NCI/ADR-RES, 0.248 µM (active); in the test with RPMI-8226, 0.0301 µM (active); in the test on RXF 393, 0.0188 µM (active). The GI50 in the test with SF-268 is 0.0203 µM (active); with SF-539, 0.0244 µM (active); in the test on SK-MEL-2 it was 0.141 µM (active); in the test with SK-OV-3 it was 0.293 µM (active); with SN12C, 0.0414 µM (active); in the test with U-251, 0.0261 µM (active). Besides, the GI50 in the test with UACC-257 is 0.146 µM (active); in the test on UO-31, 0.129 µM (active).
For the compound `Cc1cc(C(=C2C=CC(=N)C=C2)c2ccc(N)cc2)ccc1N` [FUCHSIN, BASIC], the GI50 is 3.38 µM (inactive) in the test with A549; 5.4 µM (inactive) with DU-145; 3.36 µM (inactive) in the test on HCT-116; 3.66 µM (inactive) in the test on HT-29; 4.08 µM (inactive) in the test with MDA-MB-435; 4.72 µM (inactive) in the test with MDA-N. In addition, the GI50 with MOLT-4 is 5.51 µM (inactive); in the test with Malme-3M it was 2.65 µM (inactive); in the test on NCI-H460 it was 2.52 µM (inactive); in the test on NCI/ADR-RES, 11.7 µM (inactive); in the test with RPMI-8226 it was 2.42 µM (inactive); in the test with RXF 393 it was 7.16 µM (inactive). Besides, the GI50 with SF-268 is 0.556 µM (active); in the test with SF-539, 0.706 µM (active); in the test on SK-MEL-2, 3.18 µM (inactive); in the test with SK-OV-3, 3.58 µM (inactive); in the test on SN12C, 0.299 µM (active); with UACC-257 it was 3.65 µM (inactive). The GI50 with UO-31 was 17.6 µM (inactive).
On to `CC(C)C(C=O)C(O)(C(F)(F)F)C(F)(F)F` (stereo not given), for which the GI50 with A549, in the test with DU-145, in the test with HCT-116, in the test on HT-29, with MDA-MB-435 and in the test with MDA-N was > 100 µM (inactive) throughout. Moreover, the GI50 in the test with MOLT-4, with Malme-3M, in the test on NCI-H460, with NCI/ADR-RES, in the test on RPMI-8226 and in the test on RXF 393 was > 100 µM (inactive) each time. Besides, the GI50 in the test with SF-539, with SK-MEL-2, in the test with SK-OV-3, in the test with U-251, in the test with UACC-257 and in the test with UO-31 was > 100 µM (inactive) in each case.
Turning to `Cn1cnc(N)c(N=O)c1=O`, the GI50 in the test on A549, in the test on DU-145, with HCT-116, with HT-29, in the test on MDA-MB-435 and with MDA-N was > 10 µM (inactive) each time. In addition, the GI50 in the test on MOLT-4, in the test with Malme-3M, in the test with NCI-H460, in the test with NCI/ADR-RES, in the test on RPMI-8226 and in the test with RXF 393 was > 10 µM (inactive) throughout. Further, the GI50 in the test on SF-268, in the test with SF-539, with SK-MEL-2, in the test with SK-OV-3, in the test with SN12C and with U-251 was > 10 µM (inactive) in each case. For the same compound, in the test on UACC-257, the GI50 was > 10 µM (inactive).
In the case of `C/C(=N\OCC(O)CNCCSCc1ccccc1)c1ccccc1Cl` (stereo not given), the GI50 was 19.6 µM (inactive) in the test on A549; 23.3 µM (inactive) in the test with DU-145; 21.6 µM (inactive) in the test on HCT-116; 20.6 µM (inactive) in the test with HT-29; 17.4 µM (inactive) in the test with MDA-MB-435; 19.6 µM (inactive) with MDA-N. For the same compound, the GI50 in the test on MOLT-4 was 47.5 µM (inactive); in the test with Malme-3M, 19.8 µM (inactive); in the test on NCI-H460 it was 21.6 µM (inactive); in the test on NCI/ADR-RES, 19.1 µM (inactive); in the test with RPMI-8226 it was 21.8 µM (inactive); with RXF 393, 18.7 µM (inactive). Moreover, the GI50 was 17.3 µM (inactive) in the test with SF-268; 19.5 µM (inactive) in the test on SF-539; 40.4 µM (inactive) in the test with SK-MEL-2; 19.2 µM (inactive) with SK-OV-3; 18.6 µM (inactive) in the test with SN12C; 18.5 µM (inactive) with UACC-257. Also, in the test on UO-31, the GI50 was 15.7 µM (inactive).
